According to BindingDB's records for doi:10.1021/acs.jmedchem.6b00709 (University of Berne, 2016):
pEC50: −log10 of the molar value.

Assay: Inhibition of Aurora A kinase in human HeLa Kyoto cells assessed as induction of defective chromosome alignment during metaphase incubated for 20 hrs

Compound: CCc1ccc(/N=C2\S/C(=C\c3ccnc(Nc4ccc(C(=O)O)cn4)c3)C(=O)N2C)cc1
- pEC50: 5.22
